Experimental data taken from ChEMBL document CHEMBL1143157, “New fused benzazepine as selective D3 receptor antagonists. Synthesis and biological evaluation. Part 2: [g]-fused and hetero-fused systems” (Bioorg Med Chem Lett, 2008).

Key:
in vivo [1] = details: rat, whole blood
in vivo [2] = details: rat, po
in vivo [3] = details: rat
in vivo [4] = details: rat; remark: listed apart in the source
in vivo [5] = details: rat, brain and blood, iv

SMILES | clearance (in vivo [1]) [mL/min/kg] | bioavailability (in vivo [2]) [%] | half-life (in vivo [3]) [min] | Vd (in vivo [4]) [L/kg] | Kp at 1 h (in vivo [5])
CCc1nc2c3c(ccc2o1)CCN(CCCSc1nnc(-c2ocnc2C)n1C)CC3 | 5 | 73 | 114 | 0.61 | 0.1
Cc1ncoc1-c1nnc(SCCCN2CCc3ccc4oc(C(C)(F)F)nc4c3CC2)n1C | 9 | 54 | 72 | 0.8 | 0.2
Cc1ncoc1-c1nnc(SCCCN2CCc3ccc4oc(C(F)(F)F)nc4c3CC2)n1C | 35 | 63 | 36 | 1.6 | 0.8
Cc1ccc2c(-c3nnc(SCCCN4CCc5ccc6oc(C)nc6c5CC4)n3C)cccc2n1 | 48 | 15 | 102 | – | 2.5
Cc1ccc2c(-c3nnc(SCCCN4CCc5ccc6nc(C(C)(F)F)oc6c5CC4)n3C)cccc2n1 | 43 | 8 | – | 3.31 | 4
